Experimental data published in the supplement of paper PMC8612539.
In brackets after ≈: the same amount, converted by molar mass.

Test system: Pasteurella multocida
Assay: minimum inhibitory concentration (MIC)
Protocol: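 Broth microdilution MIC (Sensititre BOPO7F bovine plate, CLSI methods) of 19 antimicrobials against field isolates of P. multocida, M. haemolytica, H. somni (deep nasopharyngeal swabs) and E. coli, Enterococcus spp. (rectal swabs) from weaned dairy heifers. Incubation 16-24 h at 35 C. MIC is the lowest concentration preventing visible growth. Values with <= or > lie at the tested range limits. Trimethoprim-sulfamethoxazole is given as the trimethoprim component of a 1:19 mixture.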

CN[C@@H]1[C@H](O)[C@H](NC)[C@H]2O[C@@]3(O)C(=O)C[C@@H](C)O[C@H]3O[C@@H]2[C@H]1O [Spectinomycin]
Conditions	minimum inhibitory concentration [µg/mL]
isolate (source animal id): 10	32 (≈ 96.3 µM)
isolate (source animal id): 11	32 (≈ 96.3 µM)
isolate (source animal id): 12	32 (≈ 96.3 µM)
isolate (source animal id): 19	32 (≈ 96.3 µM)
isolate (source animal id): 23	32 (≈ 96.3 µM)
isolate (source animal id): 26	32 (≈ 96.3 µM)
isolate (source animal id): 98	32 (≈ 96.3 µM)
isolate (source animal id): 104	≤ 8
isolate (source animal id): 115	> 64
isolate (source animal id): 117	32 (≈ 96.3 µM)
isolate (source animal id): 118	32 (≈ 96.3 µM)
isolate (source animal id): 121	> 64
isolate (source animal id): 124	32 (≈ 96.3 µM)
isolate (source animal id): 125	32 (≈ 96.3 µM)
isolate (source animal id): 128	> 64
isolate (source animal id): 131	> 64
isolate (source animal id): 135	> 64
isolate (source animal id): 136	> 64
isolate (source animal id): 140	16 (≈ 48.1 µM)
isolate (source animal id): 144	32 (≈ 96.3 µM)
isolate (source animal id): 146	32 (≈ 96.3 µM)
isolate (source animal id): 150	> 64
isolate (source animal id): 151	> 64
isolate (source animal id): 153	16 (≈ 48.1 µM)
isolate (source animal id): 155	32 (≈ 96.3 µM)
isolate (source animal id): 157	16 (≈ 48.1 µM)
isolate (source animal id): 160	> 64
isolate (source animal id): 164	> 64
isolate (source animal id): 165	> 64
isolate (source animal id): 167	> 64
isolate (source animal id): 168	32 (≈ 96.3 µM)
isolate (source animal id): 169	32 (≈ 96.3 µM)
isolate (source animal id): 170	32 (≈ 96.3 µM)
isolate (source animal id): 171	32 (≈ 96.3 µM)
isolate (source animal id): 172	> 64
isolate (source animal id): 173	32 (≈ 96.3 µM)
isolate (source animal id): 174	> 64
isolate (source animal id): 175	> 64
isolate (source animal id): 176	> 64
isolate (source animal id): 177	> 64
isolate (source animal id): 178	> 64
isolate (source animal id): 179	32 (≈ 96.3 µM)
isolate (source animal id): 182	> 64
isolate (source animal id): 192	> 64
isolate (source animal id): 193	> 64
isolate (source animal id): 195	> 64
isolate (source animal id): 196	> 64
isolate (source animal id): 197	> 64
isolate (source animal id): 198	32 (≈ 96.3 µM)
isolate (source animal id): 199	32 (≈ 96.3 µM)
isolate (source animal id): 200	32 (≈ 96.3 µM)
isolate (source animal id): 201	> 64
isolate (source animal id): 203	> 64
isolate (source animal id): 204	> 64
isolate (source animal id): 205	32 (≈ 96.3 µM)
isolate (source animal id): 206	> 64
isolate (source animal id): 207	> 64
isolate (source animal id): 208	32 (≈ 96.3 µM)
isolate (source animal id): 209	> 64
isolate (source animal id): 210	32 (≈ 96.3 µM)
isolate (source animal id): 213	32 (≈ 96.3 µM)
isolate (source animal id): 216	> 64
isolate (source animal id): 223	32 (≈ 96.3 µM)
isolate (source animal id): 227	> 64
isolate (source animal id): 229	32 (≈ 96.3 µM)
isolate (source animal id): 233	32 (≈ 96.3 µM)
isolate (source animal id): 234	32 (≈ 96.3 µM)
isolate (source animal id): 237	32 (≈ 96.3 µM)
isolate (source animal id): 241	16 (≈ 48.1 µM)
isolate (source animal id): 245	32 (≈ 96.3 µM)
isolate (source animal id): 247	32 (≈ 96.3 µM)
isolate (source animal id): 250	16 (≈ 48.1 µM)
isolate (source animal id): 254	32 (≈ 96.3 µM)
isolate (source animal id): 255	32 (≈ 96.3 µM)
isolate (source animal id): 258	> 64
isolate (source animal id): 261	32 (≈ 96.3 µM)
isolate (source animal id): 262	32 (≈ 96.3 µM)
isolate (source animal id): 269	32 (≈ 96.3 µM)
isolate (source animal id): 270	32 (≈ 96.3 µM)
isolate (source animal id): 274	32 (≈ 96.3 µM)
isolate (source animal id): 275	32 (≈ 96.3 µM)
isolate (source animal id): 276	16 (≈ 48.1 µM)
isolate (source animal id): 277	32 (≈ 96.3 µM)
isolate (source animal id): 278	32 (≈ 96.3 µM)
isolate (source animal id): 279	32 (≈ 96.3 µM)
isolate (source animal id): 280	32 (≈ 96.3 µM)
isolate (source animal id): 284	32 (≈ 96.3 µM)
isolate (source animal id): 285	32 (≈ 96.3 µM)
isolate (source animal id): 287	32 (≈ 96.3 µM)
isolate (source animal id): 290	32 (≈ 96.3 µM)
isolate (source animal id): 294	32 (≈ 96.3 µM)
isolate (source animal id): 295	16 (≈ 48.1 µM)
isolate (source animal id): 296	32 (≈ 96.3 µM)
isolate (source animal id): 307	32 (≈ 96.3 µM)
isolate (source animal id): 310	32 (≈ 96.3 µM)
isolate (source animal id): 311	16 (≈ 48.1 µM)
isolate (source animal id): 312	16 (≈ 48.1 µM)
isolate (source animal id): 313	16 (≈ 48.1 µM)
isolate (source animal id): 315	32 (≈ 96.3 µM)
isolate (source animal id): 316	32 (≈ 96.3 µM)

CN(C)[C@@H]1C(O)=C(C(N)=O)C(=O)[C@@]2(O)C(O)=C3C(=O)c4c(O)cccc4[C@@](C)(O)[C@H]3C[C@@H]12 [Tetracycline]
Conditions	minimum inhibitory concentration [µg/mL]
isolate (source animal id): 10	> 8
isolate (source animal id): 11	> 8
isolate (source animal id): 12	> 8
isolate (source animal id): 19	> 8
isolate (source animal id): 23	> 8
isolate (source animal id): 26	> 8
isolate (source animal id): 98	> 8
isolate (source animal id): 104	> 8
isolate (source animal id): 115	> 8
isolate (source animal id): 117	> 8
isolate (source animal id): 118	> 8
isolate (source animal id): 121	> 8
isolate (source animal id): 124	> 8
isolate (source animal id): 125	> 8
isolate (source animal id): 128	> 8
isolate (source animal id): 131	> 8
isolate (source animal id): 135	> 8
isolate (source animal id): 136	> 8
isolate (source animal id): 140	> 8
isolate (source animal id): 144	> 8
isolate (source animal id): 146	> 8
isolate (source animal id): 150	> 8
isolate (source animal id): 151	> 8
isolate (source animal id): 153	> 8
isolate (source animal id): 155	> 8
isolate (source animal id): 157	> 8
isolate (source animal id): 160	> 8
isolate (source animal id): 164	> 8
isolate (source animal id): 165	> 8
isolate (source animal id): 167	> 8
isolate (source animal id): 168	> 8
isolate (source animal id): 169	4 (≈ 9 µM)
isolate (source animal id): 170	8 (≈ 18 µM)
isolate (source animal id): 171	8 (≈ 18 µM)
isolate (source animal id): 172	> 8
isolate (source animal id): 173	> 8
isolate (source animal id): 174	> 8
isolate (source animal id): 175	> 8
isolate (source animal id): 176	> 8
isolate (source animal id): 177	> 8
isolate (source animal id): 178	> 8
isolate (source animal id): 179	8 (≈ 18 µM)
isolate (source animal id): 182	> 8
isolate (source animal id): 192	> 8
isolate (source animal id): 193	> 8
isolate (source animal id): 195	> 8
isolate (source animal id): 196	> 8
isolate (source animal id): 197	> 8
isolate (source animal id): 198	> 8
isolate (source animal id): 199	8 (≈ 18 µM)
isolate (source animal id): 200	8 (≈ 18 µM)
isolate (source animal id): 201	8 (≈ 18 µM)
isolate (source animal id): 203	> 8
isolate (source animal id): 204	> 8
isolate (source animal id): 205	> 8
isolate (source animal id): 206	> 8
isolate (source animal id): 207	> 8
isolate (source animal id): 208	8 (≈ 18 µM)
isolate (source animal id): 209	> 8
isolate (source animal id): 210	> 8
isolate (source animal id): 213	8 (≈ 18 µM)
isolate (source animal id): 216	8 (≈ 18 µM)
isolate (source animal id): 223	> 8
isolate (source animal id): 227	> 8
isolate (source animal id): 229	> 8
isolate (source animal id): 233	> 8
isolate (source animal id): 234	> 8
isolate (source animal id): 237	> 8
isolate (source animal id): 241	> 8
isolate (source animal id): 245	> 8
isolate (source animal id): 247	> 8
isolate (source animal id): 250	> 8
isolate (source animal id): 254	> 8
isolate (source animal id): 255	> 8
isolate (source animal id): 258	> 8
isolate (source animal id): 261	> 8
isolate (source animal id): 262	> 8
isolate (source animal id): 269	8 (≈ 18 µM)
isolate (source animal id): 270	> 8
isolate (source animal id): 274	> 8
isolate (source animal id): 275	> 8
isolate (source animal id): 276	> 8
isolate (source animal id): 277	8 (≈ 18 µM)
isolate (source animal id): 278	> 8
isolate (source animal id): 279	> 8
isolate (source animal id): 280	> 8
isolate (source animal id): 284	> 8
isolate (source animal id): 285	> 8
isolate (source animal id): 287	> 8
isolate (source animal id): 290	> 8
isolate (source animal id): 294	> 8
isolate (source animal id): 295	> 8
isolate (source animal id): 296	> 8
isolate (source animal id): 307	> 8
isolate (source animal id): 310	> 8
isolate (source animal id): 311	> 8
isolate (source animal id): 312	> 8
isolate (source animal id): 313	> 8
isolate (source animal id): 315	> 8
isolate (source animal id): 316	> 8
